From PubChem BioAssay (NCI)
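All cell lines were grown in 96-well plates and treated with compound for 48 hours. The concentration for full growth arrest is given as TGI.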

Assays:
Assay in all cases: growth of human tumour cells (NCI), 48 h
[1] = test system: SF-268 CNS
[2] = test system: COLO 205 colon
[3] = test system: SK-MEL-5 melanoma
[4] = test system: NCI-H226 lung
[5] = test system: MOLT-4 leukemia
[6] = test system: K-562 leukemia
[7] = test system: HCC-2998 colon
[8] = test system: CAKI-1 renal
[9] = test system: ACHN renal
[10] = test system: M14 melanoma
[11] = test system: OVCAR-4 ovarian
[12] = test system: NCI/ADR-RES ovarian
[13] = test system: TK-10 renal
[14] = test system: SNB-19 CNS
[15] = test system: SF-539 CNS
[16] = test system: DU-145 prostate
[17] = test system: HCT-15 colon
[18] = test system: MDA-MB-231 breast
[19] = test system: IGROV1 ovarian
[20] = test system: T-47D breast
[21] = test system: MALME-3M melanoma
[22] = test system: NCI-H460 lung
[23] = test system: NCI-H23 lung
[24] = test system: SK-MEL-2 melanoma
[25] = test system: HOP-92 NSCLC
[26] = test system: U251 CNS
[27] = test system: OVCAR-8 ovarian
[28] = test system: SNB-75 CNS
[29] = test system: HT29 colon
[30] = test system: MCF7 breast
[31] = test system: SK-MEL-28 melanoma
[32] = test system: OVCAR-3 ovarian
[33] = test system: MDA-N
[34] = test system: KM12 colon
[35] = test system: PC-3 prostate
[36] = test system: LOX IMVI melanoma
[37] = test system: A498 renal
[38] = test system: UACC-62 melanoma
[39] = test system: NCI-H522 lung
[40] = test system: SN12C renal
[41] = test system: A549 NSCLC
[42] = test system: RXF 393 renal
[43] = test system: RPMI-8226 leukemia
[44] = test system: CCRF-CEM leukemia
[45] = test system: MDA-MB-435
[46] = test system: HCT-116 colon
[47] = test system: HOP-62 NSCLC
[48] = test system: SR leukemia
[49] = test system: OVCAR-5 ovarian
[50] = test system: SF-295 CNS
[51] = test system: UO-31 renal
[52] = test system: 786-0 renal
[53] = test system: UACC-257 melanoma
[54] = test system: BT-549 breast
[55] = test system: HS 578T breast
[56] = test system: HL-60(TB) leukemia
[57] = test system: SW-620 colon

For `COc1ccc(-c2c3c(n(C4OC(CO)C(O)C(O)C4O)c(=S)c2C#N)CC(C)(C)CC3=O)cc1` (stereo not drawn), the TGI [1] was > 100 µM, the TGI [2] was > 100 µM and the TGI [3] was > 100 µM. The TGI [4] was > 100 µM, the TGI [5] was > 100 µM and the TGI [6] was > 100 µM. For the same molecule, the TGI [7] was > 100 µM, the TGI [8] was > 100 µM and the TGI [9] was > 100 µM. The TGI [10] was > 100 µM, the TGI [11] was > 100 µM and the TGI [12] was > 100 µM. The TGI [13] was > 100 µM, the TGI [14] was > 100 µM and the TGI [15] was > 100 µM. For the same molecule, the TGI [16] was > 100 µM, the TGI [17] was > 100 µM and the TGI [18] was > 100 µM. The TGI [19] was > 100 µM, the TGI [20] was > 100 µM and the TGI [21] was > 100 µM. For the same molecule, the TGI [22] was > 100 µM, the TGI [23] was > 100 µM and the TGI [24] was > 100 µM. The TGI [25] was > 100 µM, the TGI [26] was > 100 µM and the TGI [27] was > 100 µM. For the same molecule, the TGI [28] was > 100 µM, the TGI [29] was > 100 µM and the TGI [30] was > 100 µM. For the same molecule, the TGI [31] was > 100 µM, the TGI [32] was > 100 µM and the TGI [33] was > 100 µM. The TGI [34] was > 100 µM, the TGI [35] was > 100 µM and the TGI [36] was > 100 µM. For the same molecule, the TGI [37] was > 100 µM, the TGI [38] was > 100 µM and the TGI [39] was > 100 µM. The TGI [40] was > 100 µM, the TGI [41] was > 100 µM and the TGI [42] was > 100 µM. The TGI [43] was > 100 µM, the TGI [44] was > 100 µM and the TGI [45] was > 100 µM. The TGI [46] was > 100 µM, the TGI [47] was > 100 µM and the TGI [48] was > 100 µM. The TGI [49] was > 100 µM, the TGI [50] was > 100 µM and the TGI [51] was > 100 µM. For the same molecule, the TGI [52] was > 100 µM, the TGI [53] was > 100 µM and the TGI [54] was > 100 µM. The TGI [55] was > 100 µM and the TGI [56] was > 100 µM.
`CC(=O)OCC1OC(n2c3c(c(-c4ccc(Cl)cc4)c(C#N)c2=S)C(=O)CC(C)(C)C3)C(OC(C)=O)C(OC(C)=O)C1OC(C)=O` (stereo not drawn) was tested, and the TGI [1] was 29 µM, the TGI [2] was > 62.8 µM and the TGI [3] was 48.2 µM. The TGI [4] was > 81 µM, the TGI [5] was > 100 µM and the TGI [6] was > 100 µM. For the same molecule, the TGI [7] was 27.9 µM, the TGI [8] was > 31.9 µM and the TGI [9] was > 100 µM. For the same molecule, the TGI [10] was > 100 µM, the TGI [11] was > 100 µM and the TGI [12] was > 67.8 µM. The TGI [13] was > 100 µM, the TGI [14] was > 86.8 µM and the TGI [15] was > 68.7 µM. The TGI [57] was > 100 µM, the TGI [16] was > 100 µM and the TGI [17] was 53.2 µM. For the same molecule, the TGI [18] was 37 µM, the TGI [19] was > 100 µM and the TGI [20] was > 27.7 µM. For the same molecule, the TGI [21] was > 100 µM, the TGI [22] was > 100 µM and the TGI [23] was > 100 µM. The TGI [24] was 46.4 µM, the TGI [25] was > 100 µM and the TGI [26] was 50.3 µM. For the same molecule, the TGI [27] was 51.8 µM, the TGI [28] was 44.3 µM and the TGI [29] was > 72.2 µM. The TGI [30] was > 95.3 µM, the TGI [31] was 65.9 µM and the TGI [32] was > 74 µM. For the same molecule, the TGI [33] was > 54.8 µM, the TGI [34] was > 77.4 µM and the TGI [35] was 63.6 µM. It also gave a TGI [36] of 29.8 µM, a TGI [37] of 87.9 µM and a TGI [38] of 27.8 µM. For the same molecule, the TGI [39] was > 58.1 µM, the TGI [40] was > 53.4 µM and the TGI [41] was > 100 µM. The TGI [42] was 68.8 µM, the TGI [43] was > 100 µM and the TGI [44] was > 100 µM. For the same molecule, the TGI [45] was > 69.6 µM, the TGI [46] was > 100 µM and the TGI [47] was > 100 µM. For the same molecule, the TGI [48] was > 100 µM, the TGI [49] was > 100 µM and the TGI [50] was > 100 µM. For the same molecule, the TGI [51] was > 78.5 µM, the TGI [52] was > 88.7 µM and the TGI [53] was 42.8 µM. The TGI [54] was 12.8 µM, the TGI [55] was 62.4 µM and the TGI [56] was > 61.1 µM.
